Data reported in patent publication US10626094B2 (La Jolla Institute of Allergy & Immunology, priority 2014, dated 2020).
pIC50: −log10 of the molar value.

Biological target: LMPTP-A (Low Molecular Weight Protein Tyrosine Phosphatase-A) enzyme (Homo sapiens (Human), UniProt P24666)
Assay: LMPTP primary screening / LMPTP (OMFP) enzyme inhibition assay, fluorescence intensity
Format: biochemical
Conditions: LMPTP-A, OMFP substrate, method of Example 2; read-out: IC50
Protocol: This assay attempts to identify inhibitors of the LMPTP-A (Low Molecular Weight Protein Tyrosine Phosphatase-A) enzyme. It is run in 1536-well format and is measured via fluorescence intensity.
A listing of materials is provided: • Item, source, catalog no. • LMPTP-A Enzyme Stock Solution (4.22 mg/ml or 206.8 μM), SBMRI Protein Facility, • N/A • OMFP, Sigma, M2629-100MG • Bis-Tris pH 6.0, Fisher Sci, BP301-100 • Triton-X 100, Sigma, T9284 • DTT, Sigma, D9779 • Mol. Grade Water, Mediatech, Inc., 46-000-CM • 1536-well black High base opaque bottom plate, Nexus Biosystems, 00019120
Final assay conditions are: • 0.625 nM LMPTP-A Enzyme • 400 μM OMFP • 50 mM Bis-Tris pH 6.0 • 1 mM DTT • 0.01% Triton-X 100 • 20 μM test compound • 3% DMSO (2% from substrate and 1% from compounds) • 6 μL reaction volume • 50 minutes incubation at room temp
Assay Procedure • 1. Prepare Reagents as described in section F. Recipe. • 2. Using LabCyte Echo, transfer 60 nL from 2 mM test compound source plate into assay plate Col. 5-48 (final concentration of test compounds is 20 μM). 60 nL of DMSO should be transferred to col. 1-4 for positive and negative control wells. • 3. Spin plates at 1000 rpm for 1 minute in centrifuge. • 4. […] Using the Bioraptr, add 3 μL/well of enzyme solution to col. 3-48. • 6. Using the Bioraptr, add 3 μL/well of substrate solution to col. 1-48. • 7. Spin plates at 1000 rpm for 1 minute in centrifuge. • 8. Incubate plates in the dark at room temperature for 50 minutes. • 9. Read plates on PerkinElmer Viewlux using a FI protocol.

Chain of LMPTP-A (Low Molecular Weight Protein Tyrosine Phosphatase-A) enzyme (P24666 whole entry): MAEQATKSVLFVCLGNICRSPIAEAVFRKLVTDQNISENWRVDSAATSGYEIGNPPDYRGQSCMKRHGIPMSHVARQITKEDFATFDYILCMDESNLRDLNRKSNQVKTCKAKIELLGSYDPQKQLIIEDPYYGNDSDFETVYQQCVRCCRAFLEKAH

| Molecule | pIC50 |
| --- | --- |
| COc1ccc(-c2cc(Nc3ccc(Br)cc3)c3ccccc3n2)cc1 [Compound G41, (4-bromophenyl)[2-(4-methoxyphenyl)(4-quinolyl)]amine] | 5.30 to 6.10 |
| Clc1cccc(-c2cc(NCCCc3cccnc3)c3ccccc3n2)c1 [Compound I202] | 5.30 to 6.10 |
| COc1ccc(-c2cc(Nc3ccc(CN4CCOCC4)cc3)c3ccccc3n2)cc1 [Compound G52, [2-(4-methoxyphenyl)(4-quinolyl)][4-(morpholin-4-ylmethyl)phenyl]amine] | 5.30 to 6.10 |
| NC(=O)c1ccc(-c2cc(NCCCN3CCCCCC3)c3ccccc3n2)cc1 [Compound I219, 4-{4-[(3-azaperhydroepinylpropyl)amino]-2-quinolyl}benzamide] | < 5.30 |
| CCNC(=O)c1ccc(-c2cc(NCCCN3CCCCC3)c3ccccc3n2)cc1 [Compound I62] | 5.30 to 6.10 |
| FC(F)(F)c1ccc(Oc2ccc(-c3cc(NCCCN4CCCCC4)c4ccccc4n3)cn2)cc1 [Compound I87] | 5.30 to 6.10 |
| COc1ccc(-c2cc(Nc3cccc(CN4CCCN(C)CC4)c3)c3ccccc3n2)cc1 [Compound G57, [2-(4-methoxyphenyl)(4-quinolyl)]{3-[(4-methyl(1,4-diazaperhydroepinyl))methyl]phenyl}amine] | 6.10 to 6.70 |
| Clc1ncccc1-c1cc(NCCCN2CCCCC2)c2ccccc2n1 [Compound I99] | 5.30 to 6.10 |
| CN(C)Cc1cc(CO)cc(Nc2cc(-c3cccc(Cl)c3)nc3ccccc23)c1 [Compound I13, (5-[(dimethylamino)methyl]-3-{[2-(3-chlorophenyl)(4-quinolyl)]amino}phenyl)methan-1-ol] | 5.30 to 6.10 |
| COc1ccc(OC)c(-c2cc(NCCCN3CCCCC3)c3ccccc3n2)c1 [Compound I173] | 5.30 to 6.10 |
| COc1ccc(-c2cc(Nc3cccc(CN4CCSCC4)c3)c3ccccc3n2)cc1 [Compound G56, [2-(4-methoxyphenyl)(4-quinolyl)][3-(1,4-thiazaperhydroin-4-ylmethyl)phenyl]amine] | 6.10 to 6.70 |
| COc1ccc(-c2cc(Nc3ccc4ccccc4n3)c3ccccc3n2)cc1 [Compound G68, [2-(4-methoxyphenyl)(4-quinolyl)]-2-quinolylamine] | 5.30 to 6.10 |
| COc1ccc(-c2cc(Nc3ccc(Cl)cc3)c3ccccc3n2)cc1 [Compound G40, (4-chlorophenyl)[2-(4-methoxyphenyl)(4-quinolyl)]amine] | 5.30 to 6.10 |
| CC(=O)Nc1ccccc1-c1cc(NCCCN2CCCCC2)c2ccccc2n1 [Compound I116] | < 5.30 |
| NC(=O)c1ccc(-c2cc(Nc3ccc(CCN4CCNCC4)cc3)c3ccccc3n2)cc1 [Compound I216, 4-(4-{[4-(2-piperazinylethyl)phenyl]amino}-2-quinolyl)benzamide] | < 5.30 |
| Cc1ccccc1-c1cc(NCCCN2CCCCC2)c2ccccc2n1 [Compound I159] | 5.30 to 6.10 |
| [2-(5-bromo-2-methoxy(4-pyridyl))(4-quinolyl)](3-piperidylpropyl)amine [Compound I89] | 5.30 to 6.10 |
| N#Cc1ccccc1-c1cc(Nc2cccc(CN3CCCC3)c2)c2ccccc2n1 [Compound I2, 2-(4-{[3-(pyrrolidinylmethyl)phenyl]amino}-2-quinolyl)benzenecarbonitrile] | 5.30 to 6.10 |
| FC(F)(F)c1cc(-c2cc(Nc3cccc(CC4CCNCC4)c3)c3ccccc3n2)cc(C(F)(F)F)c1 [Compound I52, {2-[3,5-bis(trifluoromethyl)phenyl](4-quinolyl)}[3-(4-piperidylmethyl)phenyl]amine] | < 5.30 |
| O=C(c1ccc(-c2cc(NCCCN3CCCCC3)c3ccccc3n2)cc1)N1CCCC1 [Compound I84, 4-{4-[(3-piperidylpropyl)amino](2-quinolyl)}phenyl pyrrolidinyl ketone] | 5.30 to 6.10 |
| Fc1c(Cl)cccc1-c1cc(NCCCN2CCCCC2)c2ccccc2n1 [Compound I238] | 5.30 to 6.10 |
| FC(F)(F)Oc1ccc(-c2cc(NCCCN3CCCCC3)c3ccccc3n2)cc1 [Compound G4, (3-Piperidin-1-yl-propyl)-[2-(4-trifluoromethoxy-phenyl)-quinolin-4-yl]-amine] | 5.30 to 6.10 |
| CNC(=O)c1ccc(-c2cc(NCCCN3CCCCC3)c3ccccc3n2)cc1Cl [Compound I251] | 6.10 to 6.70 |
| COc1cccc(F)c1-c1cc(NCCCN2CCCCC2)c2ccccc2n1 [Compound I164] | 5.30 to 6.10 |
| c1ccc2c(NCCCN3CCCCC3)cc(-c3ccc4scnc4c3)nc2c1 [Compound I224] | 5.30 to 6.10 |
| Cc1cccc(-c2cc(NCCCN3CCCCC3)c3ccccc3n2)c1 [Compound G9, (3-Piperidin-1-yl-propyl)-(2-m-tolyl-quinolin-4-yl)-amine] | 5.30 to 6.10 |

| Molecule | pIC50 |
| --- | --- |
| CN(C)CCNc1cc(-c2ccccc2)nc2ccccc12 [Compound I183, dimethyl{2-[(2-phenyl(4-quinolyl))amino]ethyl}amine] | < 5.30 |
| Cc1cccc(-c2cc(NCCCN3CCCCC3)c3ccccc3n2)c1C [Compound I161] | 5.30 to 6.10 |
| c1ccc2c(NCCCN3CCCCC3)cc(-c3ccsc3)nc2c1 [Compound I136] | < 5.30 |
| CCN(CC)C(=O)c1ccc(-c2cc(NCCCC3CCCNC3)c3ccccc3n2)cc1 (stereo not drawn) [Compound I71, N,N-diethyl(4-{4-[(3-piperidylpropyl)amino](2-quinolyl)}phenyl)carboxamide] | 6.10 to 6.70 |
| FC(F)(F)Oc1ccccc1-c1cc(NCCCC2CCCNC2)c2ccccc2n1 (stereo not drawn) [Compound I166, (3-piperidylpropyl){2-[2-(trifluoromethoxy)phenyl](4-quinolyl)}amine] | 6.10 to 6.70 |
| CN(C)c1cc(-c2ccccc2C(F)(F)F)nc2ccccc12 [Compound D2, N,N-dimethyl-2-(2-(trifluoromethyl)phenyl)quinolin-4-amine] | 5.30 to 6.10 |
| COc1ccc(-c2cc(NCc3ccc(CN4CCCCC4)cc3)c3ccccc3n2)cc1 [Compound I210, [2-(4-methoxyphenyl)(4-quinolyl)]{[4-(piperidylmethyl)phenyl]methyl}amine] | 5.30 to 6.10 |
| FC(F)(F)c1ccc(-c2cc(NCCCN3CCCCC3)c3ccccc3n2)c(C(F)(F)F)c1 [Compound I149] | 6.10 to 6.70 |
| CCOC(=O)c1cccc(-c2cc(NCCCN3CCCCC3)c3ccccc3n2)c1 [Compound I137] | 5.30 to 6.10 |
| c1ccc(-c2cc(NCCCN3CCOCC3)c3ccccc3n2)cc1 [Compound I179, (3-morpholin-4-ylpropyl)(2-phenyl(4-quinolyl))amine] | < 5.30 |
| COc1ccc(-c2cc(Nc3ccccc3CC3CCNCC3)c3ccccc3n2)cc1 [Compound I38, [2-(4-methoxyphenyl)(4-quinolyl)][2-(4-piperidylmethyl)phenyl]amine] | < 5.30 |
| COc1ccc(-c2cc(NCCCN3CCCCC3)c3ccccc3n2)c(OC)c1 [Compound I174] | 5.30 to 6.10 |
| CCN1CCC(Cc2ccc(Nc3cc(-c4ccc(OC)cc4)nc4ccccc34)cc2)CC1 [Compound I33, {4-[(1-ethyl(4-piperidyl))methyl]phenyl}[2-(4-methoxyphenyl)(4-quinolyl)]amine] | 5.30 to 6.10 |
| COc1ccc(-c2cc(NCCCN3CCCCC3)c3cc(C)ccc3n2)cc1 [Compound G24, [2-(4-methoxy-phenyl)-6-methyl-quinolin-4-yl]-(3-piperidin-1-yl-propyl)-amine] | < 5.30 |
| O=C(NCC1CCNCC1)c1ccc(-c2cc(NCCCN3CCCCC3)c3ccccc3n2)cc1 [Compound I197] | 6.10 to 6.70 |
| N-cyclopropyl(4-{4-[(3-piperidylpropyl)amino](2-quinolyl)}phenyl)carboxamide [Compound I70] | 5.30 to 6.10 |
| CN(C)Cc1ccc(Nc2cc(-c3ccc(C(F)(F)F)cc3C(F)(F)F)nc3ccccc23)cc1 [Compound I54, {[4-({2-[2,4-bis(trifluoromethyl)phenyl](4-quinolyl)}amino)phenyl]methyl}dimethylamine] | < 5.30 |
| COc1cccc(OC)c1-c1cc(NCCCN2CCCCC2)c2ccccc2n1 [Compound I172] | < 5.30 |
| Cc1ccc(C)c(-c2cc(NCCCN3CCCCC3)c3ccccc3n2)c1 [Compound I107] | 5.30 to 6.10 |
| Fc1ccc(-c2ccc(-c3cc(NCCCN4CCCCC4)c4ccccc4n3)cc2)cc1 [Compound I225] | 5.30 to 6.10 |
| NC(=O)c1ccc(-c2cc(NCCCN3CCCCC3)c3ccccc3n2)c(F)c1 [Compound I252] | 6.10 to 6.70 |
| Clc1ccc(-c2cc(NCCCN3CCCCC3)c3ccccc3n2)s1 [Compound I142] | 5.30 to 6.10 |
| c1ccc(-c2ccc(-c3cc(NCCCN4CCCCC4)c4ccccc4n3)cc2)cc1 [Compound I243] | 5.30 to 6.10 |
| Clc1cc(-c2cc(NCCCN3CCCCC3)c3ccccc3n2)ccn1 [Compound I102] | 5.30 to 6.10 |
| c1ccc2c(NCCCN3CCCCC3)cc(-c3ccc(OC4CCCCO4)cc3)nc2c1 (stereo not drawn) [Compound I1I3, [2-(4-(2H-3,4,5,6-tetrahydropyran-2-yloxy)phenyl)(4-quinolyl)](3-piperidylpropyl)amine] | 5.30 to 6.10 |
